# Test results published in publication doi:10.1101/2023.11.24.568596v1 (biorxiv, 2023).
# Tests used:
# Details in all cases: binder
# Erk3 = Erk3 (Homo sapiens, UniProt Q16659)
# MST3 = MST3 (Homo sapiens, UniProt Q9Y6E0)
# EphA4 = EphA4 (Homo sapiens, UniProt P54764)
# EphB1 = biological target: T1, EphB1 (Homo sapiens, UniProt P54762)
# T1 sequence (P54762 1-984): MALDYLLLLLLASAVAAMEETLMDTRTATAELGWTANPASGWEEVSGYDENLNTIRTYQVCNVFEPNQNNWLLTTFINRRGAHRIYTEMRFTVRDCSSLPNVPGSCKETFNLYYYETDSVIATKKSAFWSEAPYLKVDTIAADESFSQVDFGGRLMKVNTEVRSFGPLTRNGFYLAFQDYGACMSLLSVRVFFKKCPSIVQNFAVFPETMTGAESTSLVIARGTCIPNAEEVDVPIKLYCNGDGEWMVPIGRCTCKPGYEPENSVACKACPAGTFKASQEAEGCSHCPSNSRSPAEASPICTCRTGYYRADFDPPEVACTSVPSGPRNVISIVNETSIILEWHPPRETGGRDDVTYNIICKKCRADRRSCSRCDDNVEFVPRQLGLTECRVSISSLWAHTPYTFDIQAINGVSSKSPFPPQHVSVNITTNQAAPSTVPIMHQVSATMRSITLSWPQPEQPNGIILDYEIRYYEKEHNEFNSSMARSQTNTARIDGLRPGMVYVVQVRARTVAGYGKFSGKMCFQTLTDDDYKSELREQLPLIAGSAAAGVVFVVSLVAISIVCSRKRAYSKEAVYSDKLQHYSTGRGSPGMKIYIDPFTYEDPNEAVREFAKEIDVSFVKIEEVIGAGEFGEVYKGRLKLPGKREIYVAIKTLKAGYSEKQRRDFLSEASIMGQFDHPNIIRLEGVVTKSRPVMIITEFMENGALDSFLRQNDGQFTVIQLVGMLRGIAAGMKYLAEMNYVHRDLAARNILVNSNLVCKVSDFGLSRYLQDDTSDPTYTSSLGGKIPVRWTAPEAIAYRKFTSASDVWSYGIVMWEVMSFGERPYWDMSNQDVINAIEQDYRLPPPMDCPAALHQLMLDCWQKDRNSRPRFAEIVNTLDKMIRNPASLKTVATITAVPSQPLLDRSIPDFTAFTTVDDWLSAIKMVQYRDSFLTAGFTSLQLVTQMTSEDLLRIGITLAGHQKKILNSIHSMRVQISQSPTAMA
# MAP2K7 = biological target: T2, MAP2K7 (Homo sapiens, UniProt O14733)
# T2 sequence (O14733 1-419): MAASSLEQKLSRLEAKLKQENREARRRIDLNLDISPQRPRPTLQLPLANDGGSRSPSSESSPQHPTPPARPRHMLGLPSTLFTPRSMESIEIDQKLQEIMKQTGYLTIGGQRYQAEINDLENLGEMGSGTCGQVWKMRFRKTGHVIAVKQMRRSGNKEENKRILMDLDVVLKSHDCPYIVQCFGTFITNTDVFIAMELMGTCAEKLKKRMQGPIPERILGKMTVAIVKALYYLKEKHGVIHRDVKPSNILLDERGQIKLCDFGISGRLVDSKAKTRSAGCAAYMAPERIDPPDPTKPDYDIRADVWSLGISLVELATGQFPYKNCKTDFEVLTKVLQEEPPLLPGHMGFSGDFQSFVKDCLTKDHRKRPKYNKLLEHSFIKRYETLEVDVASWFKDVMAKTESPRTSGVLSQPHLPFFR
# MARK3 = MARK3 (Homo sapiens, UniProt P27448)
# MYT1 = biological target: T3, MYT1 (Homo sapiens, UniProt Q99640)
# T3 sequence (Q99640 1-499): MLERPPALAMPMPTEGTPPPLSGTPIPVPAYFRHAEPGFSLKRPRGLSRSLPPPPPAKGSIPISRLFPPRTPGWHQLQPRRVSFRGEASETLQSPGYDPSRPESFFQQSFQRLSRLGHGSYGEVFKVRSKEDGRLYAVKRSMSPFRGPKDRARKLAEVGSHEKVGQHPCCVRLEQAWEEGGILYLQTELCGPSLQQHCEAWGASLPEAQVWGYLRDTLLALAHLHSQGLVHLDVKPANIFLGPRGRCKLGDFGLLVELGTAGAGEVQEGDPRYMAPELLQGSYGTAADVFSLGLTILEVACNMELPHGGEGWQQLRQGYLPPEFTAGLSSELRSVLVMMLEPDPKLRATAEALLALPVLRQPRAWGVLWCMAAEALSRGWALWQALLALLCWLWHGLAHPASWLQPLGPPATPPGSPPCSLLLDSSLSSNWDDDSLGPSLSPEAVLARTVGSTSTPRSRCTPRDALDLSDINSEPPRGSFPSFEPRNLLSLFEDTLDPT
# VRK1 = biological target: T4, VRK1 (Homo sapiens, UniProt Q99986)
# T4 sequence (Q99986 1-396): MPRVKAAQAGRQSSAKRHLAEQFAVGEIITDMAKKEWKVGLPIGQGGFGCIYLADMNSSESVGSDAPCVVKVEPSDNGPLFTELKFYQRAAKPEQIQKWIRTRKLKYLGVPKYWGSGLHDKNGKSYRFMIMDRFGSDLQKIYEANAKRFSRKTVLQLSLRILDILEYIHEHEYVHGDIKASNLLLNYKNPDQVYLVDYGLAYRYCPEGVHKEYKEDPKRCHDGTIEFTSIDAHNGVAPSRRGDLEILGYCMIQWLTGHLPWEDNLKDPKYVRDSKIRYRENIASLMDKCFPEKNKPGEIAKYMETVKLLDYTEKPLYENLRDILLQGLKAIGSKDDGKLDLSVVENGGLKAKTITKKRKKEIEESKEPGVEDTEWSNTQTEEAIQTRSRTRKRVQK
# Chain of MARK3 (P27448 whole entry): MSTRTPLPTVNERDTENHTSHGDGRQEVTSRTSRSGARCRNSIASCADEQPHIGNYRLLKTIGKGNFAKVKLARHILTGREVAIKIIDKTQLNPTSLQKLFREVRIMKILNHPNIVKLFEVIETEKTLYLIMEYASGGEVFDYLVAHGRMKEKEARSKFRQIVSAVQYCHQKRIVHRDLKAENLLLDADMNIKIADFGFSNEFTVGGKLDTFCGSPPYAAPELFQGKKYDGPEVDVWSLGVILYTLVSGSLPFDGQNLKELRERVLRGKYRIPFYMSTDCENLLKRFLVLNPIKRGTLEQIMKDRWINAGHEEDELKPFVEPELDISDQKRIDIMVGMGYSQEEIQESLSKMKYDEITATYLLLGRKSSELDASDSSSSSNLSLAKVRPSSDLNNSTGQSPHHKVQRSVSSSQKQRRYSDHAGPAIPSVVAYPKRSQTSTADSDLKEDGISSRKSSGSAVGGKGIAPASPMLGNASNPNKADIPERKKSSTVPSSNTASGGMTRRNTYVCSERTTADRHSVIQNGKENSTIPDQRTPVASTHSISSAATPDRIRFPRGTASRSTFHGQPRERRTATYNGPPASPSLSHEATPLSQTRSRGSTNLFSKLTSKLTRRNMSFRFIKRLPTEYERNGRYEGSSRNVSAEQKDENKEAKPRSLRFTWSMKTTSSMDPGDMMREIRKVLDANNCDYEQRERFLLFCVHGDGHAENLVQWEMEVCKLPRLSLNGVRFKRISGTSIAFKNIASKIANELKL
# Chain of MST3 (Q9Y6E0 whole entry): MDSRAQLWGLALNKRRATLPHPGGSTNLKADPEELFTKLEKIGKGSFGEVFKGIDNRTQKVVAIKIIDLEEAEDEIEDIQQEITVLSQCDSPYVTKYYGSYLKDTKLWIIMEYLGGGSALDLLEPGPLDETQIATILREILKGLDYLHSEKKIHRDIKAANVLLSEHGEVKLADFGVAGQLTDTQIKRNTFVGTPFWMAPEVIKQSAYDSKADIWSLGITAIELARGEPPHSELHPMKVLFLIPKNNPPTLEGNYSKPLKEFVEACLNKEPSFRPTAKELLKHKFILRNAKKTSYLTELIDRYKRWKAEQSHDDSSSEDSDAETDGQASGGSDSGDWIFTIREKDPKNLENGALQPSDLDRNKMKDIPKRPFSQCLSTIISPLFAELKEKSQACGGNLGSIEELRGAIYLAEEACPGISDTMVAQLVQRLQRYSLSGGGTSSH
# Chain of Erk3 (Q16659 whole entry): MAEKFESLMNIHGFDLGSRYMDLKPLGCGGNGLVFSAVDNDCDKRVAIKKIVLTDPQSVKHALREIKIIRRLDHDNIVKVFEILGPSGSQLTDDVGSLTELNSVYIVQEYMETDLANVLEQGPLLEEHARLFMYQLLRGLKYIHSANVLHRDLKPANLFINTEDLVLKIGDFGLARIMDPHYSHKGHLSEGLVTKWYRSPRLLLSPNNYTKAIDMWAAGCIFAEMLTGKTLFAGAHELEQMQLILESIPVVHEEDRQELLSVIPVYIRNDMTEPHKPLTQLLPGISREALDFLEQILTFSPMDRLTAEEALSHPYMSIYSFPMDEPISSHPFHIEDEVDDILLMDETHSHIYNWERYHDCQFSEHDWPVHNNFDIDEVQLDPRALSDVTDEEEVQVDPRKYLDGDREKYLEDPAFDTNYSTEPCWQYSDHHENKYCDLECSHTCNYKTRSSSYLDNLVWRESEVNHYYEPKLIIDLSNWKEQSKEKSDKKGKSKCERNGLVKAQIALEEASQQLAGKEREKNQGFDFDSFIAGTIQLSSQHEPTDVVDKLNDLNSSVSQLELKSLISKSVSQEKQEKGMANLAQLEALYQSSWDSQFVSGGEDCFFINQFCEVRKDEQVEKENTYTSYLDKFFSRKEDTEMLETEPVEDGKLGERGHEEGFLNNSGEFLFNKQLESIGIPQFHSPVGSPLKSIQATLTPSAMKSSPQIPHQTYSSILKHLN
# Chain of EphA4 (P54764 whole entry): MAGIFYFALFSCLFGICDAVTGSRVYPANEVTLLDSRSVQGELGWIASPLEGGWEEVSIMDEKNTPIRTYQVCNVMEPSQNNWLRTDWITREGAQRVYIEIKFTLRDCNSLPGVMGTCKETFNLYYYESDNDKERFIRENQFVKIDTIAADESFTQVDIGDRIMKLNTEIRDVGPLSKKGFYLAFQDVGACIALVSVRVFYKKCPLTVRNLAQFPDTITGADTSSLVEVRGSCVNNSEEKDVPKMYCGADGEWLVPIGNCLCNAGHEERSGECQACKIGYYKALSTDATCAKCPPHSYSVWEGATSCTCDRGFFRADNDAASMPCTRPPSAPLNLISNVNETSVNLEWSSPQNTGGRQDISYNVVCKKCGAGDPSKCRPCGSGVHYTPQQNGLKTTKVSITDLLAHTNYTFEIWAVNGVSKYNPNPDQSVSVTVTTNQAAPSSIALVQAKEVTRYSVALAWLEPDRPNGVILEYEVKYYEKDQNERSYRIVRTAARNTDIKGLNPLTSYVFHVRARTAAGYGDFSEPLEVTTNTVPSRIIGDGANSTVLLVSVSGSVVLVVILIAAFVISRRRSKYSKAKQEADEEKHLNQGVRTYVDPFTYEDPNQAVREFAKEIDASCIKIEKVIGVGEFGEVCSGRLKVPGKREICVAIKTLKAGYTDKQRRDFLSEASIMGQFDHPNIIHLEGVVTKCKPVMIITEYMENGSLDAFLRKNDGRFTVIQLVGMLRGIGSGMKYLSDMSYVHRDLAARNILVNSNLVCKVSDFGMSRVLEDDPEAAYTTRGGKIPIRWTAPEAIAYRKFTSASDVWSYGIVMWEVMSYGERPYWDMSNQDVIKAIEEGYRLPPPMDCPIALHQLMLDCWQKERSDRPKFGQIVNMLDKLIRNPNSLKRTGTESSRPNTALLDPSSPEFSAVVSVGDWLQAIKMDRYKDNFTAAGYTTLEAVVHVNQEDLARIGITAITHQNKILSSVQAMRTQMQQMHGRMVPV
smiles,measurement,setting,value
"CNc1ncc2cc(-c3ccc(-c4cccc(C)n4)cc3Cl)c(=O)n(CCCCN)c2n1 [compound 20, MRLW5]",ΔTm MRLW5 (20),Erk3,0.5 °C
same,dTm MST3,MST3,11.7 °C
"CNc1ncc2cc(-c3ccc(-c4cccc(C)n4)cc3Cl)c(=O)n(CCC3CCNCC3)c2n1 [compound 22, 6-(2-Chloro-4-(6-methylpyridin-2-yl)phenyl)-2-(methylamino)-8-(2-(piperidin-4-yl)ethyl)pyrido[2,3-d]pyrimidin-7(8H)-one]",ΔTm 22,EphA4,2.5 °C
same,ΔTm 22,EphB1,2.6 °C
same,ΔTm 22,MAP2K7,4.3 °C
same,dTm MST3,MST3,10.5 °C
"CNc1ncc2cc(-c3ccc(-c4cccc(C)n4)cc3Cl)c(=O)n(C[C@H]3CC[C@H](N)CC3)c2n1 [compound 23, 23]",ΔTm 23,EphA4,2.9 °C
same,ΔTm 23,EphB1,3.4 °C
same,ΔTm 23,MAP2K7,7.1 °C
same,dTm MST3,MST3,10.8 °C
"Cc1cccc(-c2ccc(-c3cc4cnc(NC(CO)CO)nc4n(CCCCN)c3=O)c(Cl)c2)n1 [compound 24, 8-(4-Aminobutyl)-6-(2-chloro-4-(6-methylpyridin-2-yl)phenyl)-2-((1,3-dihydroxypropan-2-yl)amino)pyrido[2,3-d]pyrimidin-7(8H)-one]",ΔTm MR24 (24),EphA4,-0.3 °C
same,ΔTm MR24 (24),EphB1,0.2 °C
same,ΔTm MR24 (24),Erk3,0.4 °C
same,ΔTm MR24 (24),MAP2K7,3.0 °C
"Cc1cccc(-c2ccc(-c3cc4cnc(NCCCc5ccc(N)cc5)nc4n(CCCCN)c3=O)c(Cl)c2)n1 [compound 25, 8-(4-Aminobutyl)-2-((3-(4-aminophenyl)propyl)amino)-6-(2-chloro-4-(6-methylpyridin-2-yl)phenyl)pyrido[2,3-d]pyrimidin-7(8H)-one]",ΔTm 25,EphA4,1.8 °C
same,ΔTm 25,EphB1,3.0 °C
same,ΔTm 25,Erk3,1.0 °C
same,ΔTm 25,MAP2K7,6.7 °C
"Cc1cccc(-c2ccc(-c3cc4cnc(NCCCN5CCOCC5)nc4n(CCCCN)c3=O)c(Cl)c2)n1 [compound 26, MR26]",ΔTm MR26 (26),EphA4,2.5 °C
same,ΔTm MR26 (26),EphB1,3.7 °C
same,ΔTm MR26 (26),Erk3,0.4 °C
same,ΔTm MR26 (26),MAP2K7,3.1 °C
"Cc1cccc(-c2ccc(-c3cc4cnc(Nc5ccc(F)c(CO)c5)nc4n(CCCCN)c3=O)c(Cl)c2)n1 [compound 33, 8-(4-Aminobutyl)-6-(2-chloro-4-(6-methylpyridin-2-yl)phenyl)-2-((4-fluoro-3-(hydroxymethyl)phenyl)amino)pyrido[2,3-d]pyrimidin-7(8H)-one]",dTm 33,MARK3,11.5 °C
same,dTm 33,MYT1,-1.8 °C
same,dTm 33,VRK1,0.4 °C
"COc1ccc(O)c(Nc2ncc3cc(-c4ccc(-c5cccc(C)n5)cc4Cl)c(=O)n(CCCCN)c3n2)c1 [compound 34, 8-(4-Aminobutyl)-6-(2-chloro-4-(6-methylpyridin-2-yl)phenyl)-2-((2-hydroxy-5-methoxy-phenyl)amino)pyrido[2,3-d]pyrimidin-7(8H)-one]",dTm 34,MARK3,5.1 °C
same,dTm 34,MYT1,-2.7 °C
same,dTm 34,VRK1,0.0 °C
"COc1cc(N2CCOCC2)ccc1Nc1ncc2cc(-c3ccc(-c4cccc(C)n4)cc3Cl)c(=O)n(CCCCN)c2n1 [compound 35, 8-(4-Aminobutyl)-6-(2-chloro-4-(6-methylpyridin-2-yl)phenyl)-2-((2-methoxy-4-morpholino-phenyl)amino)pyrido[2,3-d]pyrimidin-7(8H)-one]",dTm 35,MARK3,6.9 °C
same,dTm 35,MYT1,-3.5 °C
same,dTm 35,VRK1,-0.2 °C
"COc1cc(N2CCN(C)CC2)ccc1Nc1ncc2cc(-c3ccc(-c4cccc(C)n4)cc3Cl)c(=O)n(CCCCN)c2n1 [compound 36, 8-(4-Aminobutyl)-6-(2-chloro-4-(6-methylpyridin-2-yl)phenyl)-2-((2-methoxy-4-(4-methylpiperazin-1-yl)phenyl)amino)pyrido[2,3-d]pyrimidin-7(8H)-one]",dTm 36,MARK3,8.5 °C
same,dTm 36,MYT1,-2.8 °C
same,dTm 36,VRK1,0.1 °C
